Laboratory results: patent US8629145B2, “Therapeutic agent for spinal canal stenosis” (Nippon Shinyaku Co., Ltd., priority 2008, dated 2014)

Test system: model rats suffering from walking disability due to compression of cauda equina
Experiment: walking disability model due to compression of cauda equina (treadmill walking distance)
Type: in vivo, Wistar strain rats
Settings: rat, oral twice daily, suspension 0.2 mg/mL in 0.5 w/v % methyl cellulose, until 13th or 20th day after operation; vs control group p<0.01
Protocol: Wistar strain rats (male; seven weeks age) (Charles Liver Japan) were subjected to a walk training once daily for continuous three or four days using a treadmill (manufactured by Muromachi Kikai). On the last day of the walk training, the animals were grouped and, on the next day, the walking time was measured and then a sham operation or an operation for compressing the cauda equina mentioned below i) was carried out. On the third, seventh, fourteenth and twenty-first days after the operation, walking time was measured. Based on the walking time measured, a walking distance was calculated.
After measuring the walking time on the third day, the group for which the operation for compressing the cauda equina was carried out was further grouped into a control group and a drug-administered group on the basis of their walking distances on the day when the operation was done and on the third day after the operation. […]
The treadmill was operated and walking time of each rat was measured using a timer. […]
As to the evaluation, the control group was evaluated by a Welch test against the sham operation group (##: p<0.01). The drug-administered group was evaluated by a t-test or a Welch test against the control group (★★: p<0.01).

**Q.** How did the “disability in walking due to compression of cauda equina (walking distance)” value turn out when `CC(C)N(CCCCOCC(=O)NS(C)(=O)=O)c1cnc(-c2ccccc2)c(-c2ccccc2)n1` [compound A, 2-{4-[N-(5,6-diphenylpyrazin-2-yl)-N-isopropylamino]butyloxy}-N-(methylsulfonyl)acetamide] was run?
**A.** significantly improved
